# Test results from PubChem BioAssay (NCI).
#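 Cells were grown in 96-well plates and exposed to each compound for 48 hours at five concentrations; endpoints were interpolated linearly between bracketing concentrations, or set to the highest concentration if not reached. TGI: concentration producing complete growth inhibition.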
# Test system: RXF-631 renal
# Assay: NCI anticancer screen, dose series, 48 h
row,SMILES,TGI [µM]
1,CCC12CCCN(Cc3ccccc3)C1c1c(n(C)c3ccccc13)C(C(=O)OC)C2 (centres undefined),> 239
2,COC(=O)C(C#CCCCCC#CC(NC(=O)OCc1ccccc1)(C(=O)OC)C(F)(F)F)(NC(=O)OCc1ccccc1)C(F)(F)F (centres undefined),> 100
3,COc1ccc(N=Cc2ccc(N(CCC#N)S(=O)(=O)c3ccccc3)cc2)cc1,> 100
4,CN(C)C(=S)/N=c1\ssc(=S)n1Cc1cccnc1,> 100
